Laboratory results from PMC7031696 (Cell chemical biology, 2019).
≈ marks a conversion by molar mass, not a printed value. Entries after “also recorded” stand apart in the source; their conditions may differ. Like-named read-outs stand apart in the source and are kept apart here.

Assays:
[1] = test system: Plasmodium falciparum 3D7-A10 parasites; test: Stage specificity assay (8-h exposure of synchronized stages, IC50^8h); format: cell-based; details: for IC50: Plasmodium falciparum
[2] = test system: asynchronous 3D7-A10 parasite cultures; test: Standard 72-h exposure asexual blood stage susceptibility assay (IC50^72h); format: cell-based, Plasmodium falciparum; details: Plasmodium falciparum, 3D7, 72 h, read-out: Overall (72hr assay) Mean IC50 (IC50^72h)
[3] = test system: 3D7-MR4 trophozoite parasite-infected RBCs; test: Metabolomic profiling (hydrophilic metabolite changes, UHPLC-MS); format: cell-based, Plasmodium falciparum
[4] = 1.5 h, 500 μM, pH 7.4
physchem = details: pH 7.4, aqueous buffer, kinetic from dmso stock
[5] = 10 × IC50^72h, 2.5 hr, trophozoites

Ratio lowest IC50 8hr/IC50 72hr ([1]; 3D7-A10): 1.7 | IC50^8h relative to IC50^72h value ([1]; most susceptible stages): ≤ 2 fold | IC50 [2]: 15.4 nM | Ratio fil./std. (absorbance filtrate/standard) [4]: 0.69 | solubility at 1.5 h (physchem): 100 to 500 µM (≈ 53.6 to 268 µg/mL)
SMILES: Clc1ccc2c(N3CCN(CCCN4CCN(c5ccnc6cc(Cl)ccc56)CC4)CC3)ccnc2c1 [Piperaquine, reference compound]
overall activity profile (stages on which active) ([1]; 8-h exposures): activity on all stages | IC50 ([1]; 3D7, read-out: Early rings Mean IC50 (IC50^8h), 8-h exposure 0–8 hr, 3D7-A10, survival at 60 h): 26.2 nM | IC50 ([1]; 3D7, read-out: Early trophozoites Mean IC50 (IC50^8h), 8-h exposure 16–24 hr, 3D7-A10, survival at 60 h): 27.4 nM | IC50 ([1]; 3D7, read-out: Late rings Mean IC50 (IC50^8h), 8-h exposure 8–16 hr, 3D7-A10, survival at 60 h): 46.3 nM | IC50 ([1]; 3D7, read-out: Late trophozoites Mean IC50 (IC50^8h), 8-h exposure 24–32 hr, 3D7-A10, survival at 60 h): 32.9 nM | IC50 ([1]; 3D7, read-out: Schizonts Mean IC50 (IC50^8h), 8-h exposure 32–40 hr, 3D7-A10, survival at 60 h): 67 nM | Stage of peak activity (Figure 6) ([1]; period when the parasite was most susceptible (lowest IC50^8h)): ring and trophozoite stages; also recorded: rings and trophozoites | changes within the set of metabolites detected (low fold change group) [3, 5]: did not induce major changes | decreased levels of dCDP, dTMP, guanosine, and guanine [3, 5]: ≥ 2 fold | Log2(fold changes) 3-phosphoglycerate ([3]; metabolite 3-phosphoglycerate, log2 fold change): 0.1576 | Log2(fold changes) 4-Pyridoxic acid ([3]; metabolite 4-Pyridoxic acid, log2 fold change): 0.0000 | Log2(fold changes) 4-aminobutyrate ([3]; metabolite 4-aminobutyrate, log2 fold change): -0.0347 | Log2(fold changes) 4-phosphopantetheine ([3]; metabolite 4-phosphopantetheine, log2 fold change): 0.0000 | Log2(fold changes) 4-phosphopantothenate ([3]; metabolite 4-phosphopantothenate, log2 fold change): -0.1578 | Log2(fold changes) 5-aminopentanoic acid ([3]; metabolite 5-aminopentanoic acid, log2 fold change): 0.0000 | Log2(fold changes) 5-methyl-THF ([3]; metabolite 5-methyl-THF, log2 fold change): 0.0000 | Log2(fold changes) 5-phosphoribosyl-1-pyrophosphate ([3]; metabolite 5-phosphoribosyl-1-pyrophosphate, log2 fold change): 0.2840 | Log2(fold changes) 6-phospho-D-gluconate ([3]; metabolite 6-phospho-D-gluconate, log2 fold change): 0.0537 | Log2(fold change) HVDD ([3]; metabolite HVDD): 0.0000 | Log2(fold change) Hydroxyisocaproic acid ([3]; metabolite Hydroxyisocaproic acid): 0.0000 | Log2(fold change) IDP ([3]; metabolite IDP): -0.0045 | Log2(fold change) IMP ([3]; metabolite IMP): -0.1159 | Log2(fold change) Inositol ([3]; metabolite Inositol): 0.0000 | Log2(fold change) Isopentyl-PP ([3]; metabolite Isopentyl-PP): 0.0000 | Log2(fold change) L-arginino-succinate ([3]; metabolite L-arginino-succinate): 0.0000 | Log2(fold change) LD ([3]; metabolite LD): 0.0483 | Log2(fold change) Myristoyl/tetradecanoyl-CoA ([3]; metabolite Myristoyl/tetradecanoyl-CoA): 0.0000 | Log2(fold change) N-Acetyl-L-alanine ([3]; metabolite N-Acetyl-L-alanine): -0.2552 | Log2(fold change) N-acetyl-L-ornithine ([3]; metabolite N-acetyl-L-ornithine): -0.0188 | Log2(fold change) N-acetyl-glucosamine-1/6-phosphate ([3]; metabolite N-acetyl-glucosamine-1/6-phosphate): -0.1206 | Log2(fold change) N-acetyl-glutamate ([3]; metabolite N-acetyl-glutamate): -0.0276 | Log2(fold change) N-acetyl-glutamine ([3]; metabolite N-acetyl-glutamine): 0.0000 | Log2(fold change) N-carbamoyl-L-aspartate ([3]; metabolite N-carbamoyl-L-aspartate): -0.1894 | Log2(fold change) NAD+ ([3]; metabolite NAD+): -0.0736 | Log2(fold change) NADH ([3]; metabolite NADH): 0.1619 | Log2(fold change) NADP+ ([3]; metabolite NADP+): 0.0160 | Log2(fold change) NADPH ([3]; metabolite NADPH): 0.1653 | Log2(fold change) O-acetyl-L-serine ([3]; metabolite O-acetyl-L-serine): 0.0000 | Log2(fold change) Octoluse 8/1P ([3]; metabolite Octoluse 8/1P): -0.0774 | Log2(fold change) Octoluse Bisphosphate ([3]; metabolite Octoluse Bisphosphate): 0.0393 | Log2(fold change) PD ([3]; metabolite PD): -0.0500 | Log2(fold change) PE ([3]; metabolite PE): 0.0291 | Log2(fold change) PEE ([3]; metabolite PEE): 0.1599 | Log2(fold change) PEEK ([3]; metabolite PEEK): 0.3927 | Log2(fold change) PVNF ([3]; metabolite PVNF): 0.0618 | Log2(fold change) Pyroglutamic acid ([3]; metabolite Pyroglutamic acid): -0.2255 | Log2(fold change) Pyrophosphate ([3]; metabolite Pyrophosphate): 0.0000 | Log2(fold change) Ribose-5-phosphate ([3]; metabolite Ribose-5-phosphate): -0.0505 | Log2(fold change) S-adenosyl-L-homocysteine ([3]; metabolite S-adenosyl-L-homocysteine): -0.1747 | Log2(fold change) S-adenosyl-L-methioninamine ([3]; metabolite S-adenosyl-L-methioninamine): 0.0000 | Log2(fold change) S-adenosyl-L-methionine ([3]; metabolite S-adenosyl-L-methionine): 0.0000 | Log2(fold change) S-methyl-5'-thioadenosine ([3]; metabolite S-methyl-5'-thioadenosine): -5.54e-5 | Log2(fold change) SD ([3]; metabolite SD): 0.0815 | Log2(fold change) SDL ([3]; metabolite SDL): 0.0000 | Log2(fold change) SID ([3]; metabolite SID): 0.0000 | Log2(fold change) Sedoheptulose bisphosphate ([3]; metabolite Sedoheptulose bisphosphate): 0.2230 | Log2(fold change) Thiamine pyrophosphate ([3]; metabolite Thiamine pyrophosphate): -0.1023 | Log2(fold changes) UDP-D-glucose ([3]; metabolite UDP-D-glucose, log2 fold change): -0.0097 | Log2(fold changes) UDP-D-glucuronate ([3]; metabolite UDP-D-glucuronate, log2 fold change): 0.0081 | Log2(fold changes) UDP-N-acetyl-glucosamine ([3]; metabolite UDP-N-acetyl-glucosamine, log2 fold change): -0.0956 | Log2(fold changes) UDP ([3]; metabolite UDP, log2 fold change): -0.8655 | Log2(fold changes) UMP ([3]; metabolite UMP, log2 fold change): -0.2304 | Log2(fold changes) UTP ([3]; metabolite UTP, log2 fold change): 0.0058 | Log2(fold change) hydroxyphenylpyruvate ([3]; metabolite hydroxyphenylpyruvate): 0.0000 | Log2(fold change) hydroxyproline/Aminolevulinate ([3]; metabolite hydroxyproline/Aminolevulinate): 0.0000 | Log2(fold change) hypoxanthine ([3]; metabolite hypoxanthine): 0.0000 | Log2(fold change) indole ([3]; metabolite indole): 0.0000 | Log2(fold change) inosine ([3]; metabolite inosine): -0.3997 | Log2(fold change) isoleucine ([3]; metabolite isoleucine): 0.1103 | Log2(fold change) lactate ([3]; metabolite lactate): -0.4255 | Log2(fold change) leucine ([3]; metabolite leucine): -0.0845 | Log2(fold change) lysine ([3]; metabolite lysine): 0.0614 | Log2(fold change) malate ([3]; metabolite malate): -0.0964 | Log2(fold change) maleic acid ([3]; metabolite maleic acid): -0.0992 | Log2(fold change) methionine ([3]; metabolite methionine): 0.1002 | Log2(fold change) myo-inositol ([3]; metabolite myo-inositol): -0.6606 | Log2(fold change) nicotinamide mononucleotide ([3]; metabolite nicotinamide mononucleotide): -0.1524 | Log2(fold change) nicotinate ([3]; metabolite nicotinate): -0.4222 | Log2(fold change) ornithine ([3]; metabolite ornithine): 0.0000 | Log2(fold change) orotate ([3]; metabolite orotate): -0.5698 | Log2(fold change) orotidine-5'-phosphate ([3]; metabolite orotidine-5'-phosphate): -0.6109 | Log2(fold change) oxaloacetate ([3]; metabolite oxaloacetate): 0.0000 | Log2(fold change) p-aminobenzoate ([3]; metabolite p-aminobenzoate): 0.0000 | Log2(fold change) p-hydroxybenzoate ([3]; metabolite p-hydroxybenzoate): 0.0000 | Log2(fold change) pantothenate ([3]; metabolite pantothenate): -0.1253 | Log2(fold change) phenylalanine ([3]; metabolite phenylalanine): -0.1188 | Log2(fold change) phenylpyruvate ([3]; metabolite phenylpyruvate): 0.0000 | Log2(fold change) phosphoenolpyruvate ([3]; metabolite phosphoenolpyruvate): 0.1409 | Log2(fold change) prephenate ([3]; metabolite prephenate): 0.0000 | Log2(fold change) proline ([3]; metabolite proline): -0.1490 | Log2(fold change) pyridoxine ([3]; metabolite pyridoxine): -0.1465 | Log2(fold change) pyruvate ([3]; metabolite pyruvate): -0.2297 | Log2(fold change) riboflavin ([3]; metabolite riboflavin): 0.0675 | Log2(fold change) ribose ([3]; metabolite ribose): 0.0000 | Log2(fold change) ribose-phosphate ([3]; metabolite ribose-phosphate): -0.1362 | Log2(fold change) ribulose-5-phosphate ([3]; metabolite ribulose-5-phosphate): -0.0392 | Log2(fold change) serine ([3]; metabolite serine): 0.0266 | Log2(fold change) sn-glycerol-3-phosphate ([3]; metabolite sn-glycerol-3-phosphate): 0.0600 | Log2(fold change) succinate/Methylmalonic acid ([3]; metabolite succinate/Methylmalonic acid): 0.0813 | Log2(fold change) succinyl-CoA/methylmalonyl-CoA ([3]; metabolite succinyl-CoA/methylmalonyl-CoA): 0.0000 | Log2(fold change) taurine ([3]; metabolite taurine): 0.4424 | Log2(fold change) thiamine ([3]; metabolite thiamine): -0.0999 | Log2(fold change) threonine/homoserine ([3]; metabolite threonine/homoserine): -0.0376 | Log2(fold change) thymidine ([3]; metabolite thymidine): 0.0000 | Log2(fold changes) thymine ([3]; metabolite thymine, log2 fold change): 0.0000 | Log2(fold changes) trehalose-6-Phosphate ([3]; metabolite trehalose-6-Phosphate, log2 fold change): 0.0000 | Log2(fold changes) tryptophan ([3]; metabolite tryptophan, log2 fold change): -0.0757 | Log2(fold changes) tyrosine ([3]; metabolite tyrosine, log2 fold change): 0.0866 | Log2(fold changes) uridine ([3]; metabolite uridine, log2 fold change): -0.4854
